The record followed here is patent US20240384353A1, “METHODS OF TREATING PANCREATIC CANCER” (Fred Hutchinson Cancer Center, priority 2023, published 2024).

The test system of the assay is human PDA tumors. The assay is described as follows: Median survival by HMGA2/GATA6 status (IHC, tissue microarray of human PDA tumors) and first-line therapy. The assay is classed as in vivo. The settings on record: first-line therapy, FIG. 12A-12B. The method, then:
Expression levels of HMGA2 and GATA6 were determined separately in Tissue microarray comprising human PDA tumors from over 800 patients, along with matched (normal pancreatic tissue) controls and correlated to clinical data (stage at diagnosis, treatment history). These samples were stained and scored for HMGA2 (FIG. 9A) and GATA6.

SMILES strings stand for the structures.

For `Nc1ccn([C@@H]2O[C@H](CO)[C@@H](O)C2(F)F)c(=O)n1` [Gemcitabine], the “overall median survival of HMGA2^high/GATA6^low tumors compared to HMGA2^low/GATA6^high tumors” value is reported as “overall low median survival”.
